Where “and” joins values, the source holds several entries; their conditions need not be identical. Equal values may be shown once. Entries after “also recorded” stand apart in the source; their conditions may differ. No end group written: not given here.
Tests used:
[1] = Cloprostenol sodium alone in male and female subjects (Example 1); type: in vivo, human
Procedure: Cloprostenol sodium was taken by eight male and two female subjects at a dosage of 120 micrograms for every 2501b (113 kg) body weight. The dosage was calculated pro rata based on the weight of the subject involved.
With the female subjects the process was identical. However, the dosage was reduced to 15 μg per shot for menstrual reasons.

[2] = minimal dose of 40 μg; cited from earlier work
[3] = acute administration in humans, case reports; cited from earlier work
hGH receptor = target: T1, hGH receptor (Homo sapiens, UniProt P10912); conditions: unlike Human Growth Hormone; cited from earlier work
T1 sequence (P10912 19-638): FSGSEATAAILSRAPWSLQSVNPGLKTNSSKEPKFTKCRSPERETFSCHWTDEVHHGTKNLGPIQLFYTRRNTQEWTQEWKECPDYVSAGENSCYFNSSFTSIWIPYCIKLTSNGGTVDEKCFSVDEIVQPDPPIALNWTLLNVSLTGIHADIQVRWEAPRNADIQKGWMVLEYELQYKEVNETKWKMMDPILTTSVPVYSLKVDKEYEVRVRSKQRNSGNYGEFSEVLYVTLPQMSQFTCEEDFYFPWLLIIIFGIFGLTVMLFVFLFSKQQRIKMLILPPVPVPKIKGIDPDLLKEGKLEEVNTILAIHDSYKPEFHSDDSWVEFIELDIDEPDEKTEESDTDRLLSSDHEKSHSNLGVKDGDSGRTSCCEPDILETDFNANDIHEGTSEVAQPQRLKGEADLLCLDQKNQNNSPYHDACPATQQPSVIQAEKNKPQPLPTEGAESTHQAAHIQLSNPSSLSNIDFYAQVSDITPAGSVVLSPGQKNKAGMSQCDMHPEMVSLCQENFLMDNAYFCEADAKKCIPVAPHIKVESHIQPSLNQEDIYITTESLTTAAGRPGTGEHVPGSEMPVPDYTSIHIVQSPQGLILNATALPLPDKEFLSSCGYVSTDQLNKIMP

cell proliferation = conditions: unlike Human Growth Hormone; cited from earlier work
ob/ob mice = conditions: cited from earlier work
[4] = system: isolated adipose tissue from obese rodents; conditions: cited from earlier work
[5] = system: isolated adipose tissue from obese humans; conditions: cited from earlier work
adipose tissue = conditions: cited from earlier work
[6] = Four week trial of amino acids 176-191 of human growth hormone alone (Example 2); type: in vivo; conditions: for Bowel Habits (per day): one value per test subject
Excerpt: Ten subjects were given a daily subcutaneous dose of 2 International Units (IU) of amino acids 176-191 of human growth hormone for a four week trial period.

[7] = cited from earlier work
[8] = ten subjects, daily subcutaneous 2 IU, four weeks

For `O=C(O)CCC/C=C\CC1C(O)CC(O)C1/C=C/C(O)COc1cccc(Cl)c1` (centres unmarked) [Cloprostenol sodium, cloprostenol sodium], the “Willingness to continue use” value ([1]; all recipients) was “None of the recipients wished to continue to use this product for more than three days”, the “Side effects and willingness to continue in females” value ([1]; females, 15 μg per shot) was “No female subjects wished to continue using this product due to severe stomach cramps” and the “Side effects in males” value ([1]; males, shots of 30 μg at a time) was “very severe stomach cramps and extensive bowel movements”. For the same compound, the “Comments (stopping of use)” value ([1]; same dosing, one comment per test subject) was “Stopped after 2 days; also recorded: Stopped as cramp and pain; also recorded: Stopped after 1st day; also recorded: Stopped after 3 days”.

In the case of `O=C(O)CCC/C=C\C[C@@H]1C(/C=C/[C@@H](O)COc2cccc(Cl)c2)[C@H](O)C[C@@H]1O` (stereo partly drawn) [Cloprostenol, (5Z)-7-[(1R,3R,5S)-2-[(E,3R)-4-(3-chlorophenoxy)-3-hydroxybut-1-enyl]-3,5-dihydroxycyclopentyl]hept-5-enoic acid], the “Bowel evacuation after dosing” value [2] is given as “within ten minutes users will have to evacuate their bowels”.

In the case of `O=[N+]([O-])c1ccc(O)c([N+](=O)[O-])c1` [DNP, 2,4-Dinitrophenol], the Lethal acute administration [3] is listed as 20 to 50 mg/kg.

For “HGH Fragment 177-191: Human growth hormone fragment of the cited studies; shares amino acid sequence with Human Growth Hormone (LRIVQCRSVEGSCGF; ends and bridges not checked; cysteine pairing not given here; UniProt P01241 203-217, looked up, fragment)”, the “Competition for the hGH receptor” value (hGH receptor) is listed as “does not compete for the hGH receptor”, the “Induction of cell proliferation” value (cell proliferation) is listed as “nor does it induce cell proliferation” and the “Energy expenditure, glucose and fat oxidation” value (ob/ob mice) is listed as “increasing energy expenditure and glucose and fat oxidation”. For the same compound, the “In vitro lipogenic activity” value [4] was “decreased lipogenic activity”, the “In vitro lipolytic activity” value [4] was “increased in vitro lipolytic activity” and the “In vitro lipogenic activity” value [5] was “decreased lipogenic activity”. The “In vitro lipolytic activity” value [5] was “increased in vitro lipolytic activity”, the “Lipolytic activity in adipose tissue” value (adipose tissue; dosage of 500 μg) was “increase lipolytic activity in adipose tissue” and the “Impact on insulin sensitivity” value (adipose tissue; in vivo) was “no negative impact on insulin sensitivity”.

With “YLRIVQCRSVEGSCGF (cysteine pairing not given here) [HGH fragment 176-191, freely available commercially]” the “Body Fat” value ([6]; Test subject 1, Week 4, start 17%) was 15%, the Weight ([6]; Test subject 1, Week 4, start 98 kg) was “(96 kg)” and the Weight ([6]; Test subject 1, Week 4, start 217 lb) was 212 lb. For the same compound, the “Body Fat” value ([6]; Test subject 2, Week 4, start 31%) was 28%, the Weight ([6]; Test subject 2, Week 4, start 92 kg) was “(89 kg)” and the Weight ([6]; Test subject 2, Week 4, start 203 lb) was 196 lb. For the same compound, the “Body Fat” value ([6]; Test subject 3, Week 4, start 18%) was 15%, the Weight ([6]; Test subject 3, Week 4, start 108 kg) was “(106 kg)” and the Weight ([6]; Test subject 3, Week 4, start 238 lb) was 233 lb. For the same compound, the “Body Fat” value ([6]; Test subject 4, Week 4, start 10%) was 10%, the Weight ([6]; Test subject 4, Week 4, start 92 kg) was “(92 kg)” and the Weight ([6]; Test subject 4, Week 4, start 203 lb) was 203 lb. The “Body Fat” value ([6]; Test subject 5, Week 4, start 25%) was 24%, the Weight ([6]; Test subject 5, Week 4, start 105 kg) was “(103 kg)” and the Weight ([6]; Test subject 5, Week 4, start 231 lb) was 226 lb. The “Body Fat” value ([6]; Test subject 6, Week 4, start 32%) was 30%, the Weight ([6]; Test subject 6, Week 4, start 68 kg) was “(67 kg)” and the Weight ([6]; Test subject 6, Week 4, start 150 lb) was 147 lb. For the same compound, the “Body Fat” value ([6]; Test subject 7, Week 4, start 30%) was 28%, the Weight ([6]; Test subject 7, Week 4, start 79 kg) was “(76 kg)” and the Weight ([6]; Test subject 7, Week 4, start 173 lb) was 168 lb. For the same compound, the “Body Fat” value ([6]; Test subject 8, Week 4, start 34%) was 30%, the Weight ([6]; Test subject 8, Week 4, start 108 kg) was “(103 kg)” and the Weight ([6]; Test subject 8, Week 4, start 238 lb) was 226 lb. The “Body Fat” value ([6]; Test subject 9, Week 4, start 10%) was 10%, the Weight ([6]; Test subject 9, Week 4, start 79 kg) was “(79 kg)” and the Weight ([6]; Test subject 9, Week 4, start 175 lb) was 175 lb. For the same compound, the “Body Fat” value ([6]; Test subject 10, Week 4, start 21%) was 18%, the Weight ([6]; Test subject 10, Week 4, start 86 kg) was “(83 kg)” and the Weight ([6]; Test subject 10, Week 4, start 189 lb) was 182 lb. The “Bowel Habits (per day)” value ([6]; Week 1, daily subcutaneous 2 IU) was 2 per day and 1 per day, the “Bowel Habits (per day)” value ([6]; Week 2, daily subcutaneous 2 IU) was 2 per day and 1 per day and the “Bowel Habits (per day)” value ([6]; Week 3, daily subcutaneous 2 IU) was 1 per day and 2 per day. The “Bowel Habits (per day)” value ([6]; Week 4, daily subcutaneous 2 IU) was 1 per day and 2 per day, the Completion of trial [6, 8] was “All subjects completed the four week trial” and the “Reduction in body fat and weight loss” value [6, 8] was “no real reduction in body fat or meaningful weight loss”. The Side effects ([7]; clinical trial and experimental users) was “No side effects have been reported”, the “Stimulation of the metabolism of body fat” value ([7]; humans) was “highly successful at stimulating the metabolism of body fat in humans” and the “Average overall weight loss (fat)” value ([7]; in three months, oral dosing) was 3 kg. The “Most effective daily dose” value ([7]; lowest of 6 doses, oral, 3 months) was 1 mg and the “Weight loss relative to test subjects not taking the peptide” value ([7]; three months, more than subjects not taking the peptide) was 300%.

From patent US20150306182A1, “FAT LOSS COMPOSITION” (priority 2012, published 2015)
